Read-outs that look alike come from different tables or passages of the source.
How the values were obtained:
c-Myc/Max/Ebox DNA = target: T1, c-Myc/Max/Ebox DNA (Homo sapiens, UniProt P01106); test: c-Myc/Max/Ebox DNA AlphaScreen Assay; format: binding; conditions: Table 2, compounds of FIG. 1; calculated IC50 class
T1 construct: his6 (cleaved yes)
How it was run: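 Compounds were preincubated with free c-Myc (20 nM), biotinylated single-Ebox DNA (10 nM) and Ni acceptor beads before his6-Max (5 nM) and streptavidin donor beads were added. Buffer was 50 mM HEPES pH 8.0, 150 mM NaCl, BSA, Tween20, glycogen and DTT, with DMSO ≤2%. After 2 h incubation, AlphaScreen signal was read at 680 nm excitation and 520–620 nm emission.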

[1] = system: human small lung cancer cell line H2171; test: Cell Viability Assay (ATPlite); format: cell-based; conditions: Table 2, compounds of FIG. 1, H2171 cells, three days, ATPlite, calculated IC50 class, read-out: H2171 Activity
Experimental: Compounds of the invention were assayed for cell viability using the human small lung cancer cell line H2171 as described in the following protocol. Cells were counted and adjusted to 20,000 cells/mL. Using a Biotek EL406, 50 μL of cells in media were distributed into 384 well white plates from Thermo. Immediately after plating, compound in DMSO was distributed to plates. Compounds were added to plates using a 50 nL 384 well pin transfer manifold on a Janus workstation. Stocks were arrayed in 10 point dose response in DMSO stock in 384 well Greiner compound plates. After the addition of compounds, plates were incubated for three days in a 37° C. incubator. Cell viability was read out using ATPlite from Perkin Elmer. Lyophilized powder was resuspended in lysis buffer and diluted 1:2 with deionized water. 25 μL of this solution was added to each well using the Biotek liquid handler. Plates were incubated for 15 minutes at room temperature before signal was read on an Envision Plate Reader. The data from this assay are summarized in Tables 2 and 3 below (H2171 activity).

T1 sequence (P01106 whole entry): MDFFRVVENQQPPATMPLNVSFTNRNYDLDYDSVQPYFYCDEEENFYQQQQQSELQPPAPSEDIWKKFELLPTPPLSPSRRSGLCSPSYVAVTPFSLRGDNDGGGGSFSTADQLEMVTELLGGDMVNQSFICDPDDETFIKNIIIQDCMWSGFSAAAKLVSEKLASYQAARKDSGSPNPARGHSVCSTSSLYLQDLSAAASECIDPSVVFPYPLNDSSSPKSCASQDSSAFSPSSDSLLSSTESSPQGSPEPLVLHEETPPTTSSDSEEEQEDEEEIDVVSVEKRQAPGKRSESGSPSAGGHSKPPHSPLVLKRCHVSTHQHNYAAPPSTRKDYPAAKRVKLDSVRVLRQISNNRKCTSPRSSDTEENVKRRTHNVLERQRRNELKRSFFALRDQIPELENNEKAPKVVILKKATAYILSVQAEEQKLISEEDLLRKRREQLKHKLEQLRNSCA

Row | IC50 (c-Myc/Max/Ebox DNA) [nM] | IC50 [1] [nM] | IC50 ([1]; Homo sapiens, NCI-H2171, 72 h) [nM] | SMILES
1 | 1000 to 10000 | < 300 | – | COCCNCCC(=O)Nc1sc2c(c1-c1nc3cc(-c4cnn(C)c4)ccc3s1)CC(C)NC2C (single isomer, unassigned) [Compound 567, N-(5,7-Dimethyl-3-(5-(1-methyl-1H-pyrazol-4-yl)benzo[d]thiazol-2-yl)-4,5,6,7-tetrahydrothieno[2,3-c]pyridin-2-yl)-3-((2-methoxyethyl)amino)propanamide]
2 | 1000 to 10000 | 1000 to 10000 | – | COCCNCCC(=O)Nc1sc2c(c1-c1nc3cc(-c4ccncc4)ccc3s1)CCNC2C (single isomer, unassigned) [Compound 569, 3-((2-Methoxyethyl)amino)-N-(7-methyl-3-(5-(pyridin-4-yl)benzo[d]thiazol-2-yl)-4,5,6,7-tetrahydrothieno[2,3-c]pyridin-2-yl)propanamide]
3 | < 300 | – | < 300 | CC[C@H](C)NCCC(=O)Nc1sc2c(c1-c1nc3cc(C(F)(F)F)ccc3s1)CC(C)NC2C (single isomer, unassigned) [Compound 584]
4 | < 300 | < 300 | – | CC[C@H](C)NCCC(=O)Nc1sc2c(c1-c1nc3cc(C(F)(F)F)ccc3s1)CC(C)NC2C (single isomer, unassigned) [Compound 585]
5 | > 10000 | < 300 | – | CC[C@H](C)NCCC(=O)Nc1sc2c(c1-c1nc3cc(C(F)(F)F)ccc3s1)CC(C)NC2C (single isomer, unassigned) [Compound 586]
6 | > 10000 | 300 to 1000 | – | CC[C@H](C)NCCC(=O)Nc1sc2c(c1-c1nc3cc(C(F)(F)F)ccc3s1)CC(C)NC2C (single isomer, unassigned) [Compound 587]
7 | 1000 to 10000 | 1000 to 10000 | – | CC[C@H](C)NCCC(=O)Nc1sc2c(c1-c1nc3ccccc3s1)CC(C)NC2C (single isomer, unassigned) [Compound 620]
8 | > 10000 | 1000 to 10000 | – | CC[C@H](C)NCCC(=O)Nc1sc2c(c1-c1nc3ccccc3s1)CC(C)NC2C (single isomer, unassigned) [Compound 621]
9 | < 300 | < 300 | – | CC[C@H](C)NCCC(=O)Nc1sc2c(c1-c1nc3ccccc3s1)CC(C)NC2C (single isomer, unassigned) [Compound 624]
10 | 300 to 1000 | – | < 300 | CC(C)N1CCc2c(sc(NC(=O)CCNCc3cnn(C)c3)c2-c2nc3ccccc3s2)C1 [Compound 100, N-(3-(benzo[d]thiazol-2-yl)-6-isopropyl-4,5,6,7-tetrahydrothieno[2,3-c]pyridin-2-yl)-3-(((1-methyl-1H-pyrazol-4-yl)methyl)amino)propanamide]
11 | < 300 | 300 to 1000 | – | CCC(C)N(C)CCC(=O)Nc1sc2c(c1-c1nc3ccccc3s1)CCN(C(C)C)C2 (stereo not drawn) [Compound 122]
12 | < 300 | – | < 300 | CCC(C)NCCC(=O)Nc1sc2c(c1-c1nc3cc(F)ccc3s1)CCNC2 (stereo not drawn) [Compound 123, 3-(sec-butylamino)-N-(3-(5-fluorobenzo[d]thiazol-2-yl)-4,5,6,7-tetrahydrothieno[2,3-c]pyridin-2-yl) propanamide]
13 | < 300 | – | < 300 | CCC(C)NCCC(=O)Nc1sc2c(c1-c1nc3ccccc3s1)CCNC2 (stereo not drawn) [Compound 124, N-(3-(benzo[d]thiazol-2-yl)-4,5,6,7-tetrahydrothieno[2,3-c]pyridin-2-yl)-3-(sec-butylamino)propanamide]
14 | 300 to 1000 | – | 300 to 1000 | CCC(C)NCCC(=O)Nc1sc2c(c1-c1nc3cc(C(F)(F)F)ccc3s1)CCNC2 (stereo not drawn) [Compound 125, 3-(sec-butylamino)-N-(3-(5-(trifluoromethyl)benzo[d]thiazol-2-yl)-4,5,6,7-tetrahydrothieno[2,3-c]pyridin-2-yl) propanamide]
15 | < 300 | – | < 300 | CCC(C)NCCC(=O)Nc1sc2c(c1-c1nc3cc(F)ccc3s1)CCN(C(C)C)C2 (stereo not drawn) [Compound 126, 3-(sec-butylamino)-N-(3-(5-fluorobenzo[d]thiazol-2-yl)-6-isopropyl-4,5,6,7-tetrahydrothieno[2,3-c]pyridin-2-yl)propanamide]
16 | 300 to 1000 | – | 300 to 1000 | CC(C)N1CCc2c(sc(NC(=O)CCNC(C)(C)C)c2-c2nc3ccccc3s2)C1 [Compound 127, N-(3-(benzo[d]thiazol-2-yl)-6-isopropyl-4,5,6,7-tetrahydrothieno[2,3-c]pyridin-2-yl)-3-(tert-butylamino)propanamide]
17 | < 300 | – | < 300 | CNCCC(=O)Nc1sc2c(c1-c1nc3ccccc3s1)CCNC2 [Compound 128, N-(3-(benzo[d]thiazol-2-yl)-4,5,6,7-tetrahydrothieno[2,3-c]pyridin-2-yl)-3-(methylamino)propanamide]
18 | < 300 | – | < 300 | CC(C)NCCC(=O)Nc1sc2c(c1-c1nc3ccccc3s1)CCNC2 [Compound 129, N-(3-(benzo[d]thiazol-2-yl)-4,5,6,7-tetrahydrothieno[2,3-c]pyridin-2-yl)-3-(isopropylamino)propanamide]
19 | < 300 | – | < 300 | CN(C)CCC(=O)Nc1sc2c(c1-c1nc3ccccc3s1)CCNC2 [Compound 130, N-(3-(benzo[d]thiazol-2-yl)-4,5,6,7-tetrahydrothieno[2,3-c]pyridin-2-yl)-3-(dimethylamino)propanamide]
20 | < 300 | – | 300 to 1000 | CC(C)(C)NCCC(=O)Nc1sc2c(c1-c1nc3ccccc3s1)CCNC2 [Compound 131, N-(3-(benzo[d]thiazol-2-yl)-4,5,6,7-tetrahydrothieno[2,3-c]pyridin-2-yl)-3-(tert-butylamino)propanamide]
21 | 300 to 1000 | – | 300 to 1000 | CC(C)NCCC(=O)Nc1sc2c(c1-c1nc3ccccc3s1)CCN(C(C)C)C2 [Compound 132, N-(3-(benzo[d]thiazol-2-yl)-6-isopropyl-4,5,6,7-tetrahydrothieno[2,3-c]pyridin-2-yl)-3-(isopropylamino)propanamide]
22 | > 10000 | – | 1000 to 10000 | CC(C)N1CCc2c(sc(NC(=O)CCN3C(=O)C=CC3=O)c2-c2nc3ccccc3s2)C1 [Compound 133, N-(3-(benzo[d]thiazol-2-yl)-6-isopropyl-4,5,6,7-tetrahydrothieno[2,3-c]pyridin-2-yl)-3-(2,5-dioxo-2,5-dihydro-1H-pyrrol-1-yl)propanamide]
23 | < 300 | – | < 300 | COCCNCCC(=O)Nc1sc2c(c1-c1nc3ccccc3s1)CCNC2 [Compound 134, N-(3-(benzo[d]thiazol-2-yl)-4,5,6,7-tetrahydrothieno[2,3-c]pyridin-2-yl)-3-((2-methoxyethyl)amino)propanamide]
24 | < 300 | – | < 300 | CC[C@H](C)NCCC(=O)Nc1sc2c(c1-c1nc3ccccc3s1)CCN(C(C)C)C2 [Compound 135, (S)—N-(3-(benzo[d]thiazol-2-yl)-6-isopropyl-4,5,6,7-tetrahydrothieno[2,3-c]pyridin-2-yl)-3-(sec-butylamino)propanamide]
25 | 1000 to 10000 | – | 300 to 1000 | O=C(CCNCCc1cccnc1)Nc1sc2c(c1-c1nc3ccccc3s1)CCNC2 [Compound 136, N-(3-(benzo[d]thiazol-2-yl)-4,5,6,7-tetrahydrothieno[2,3-c]pyridin-2-yl)-3-((2-(pyridin-3-yl)ethyl)amino) propanamide]
26 | 1000 to 10000 | – | > 10000 | CCC(C)NCCC(=O)Nc1sc2c(c1-c1nc3ccccc3s1)CCN(C1COC1)C2 (stereo not drawn) [Compound 137, N-(3-(benzo[d]thiazol-2-yl)-6-(oxetan-3-yl)-4,5,6,7-tetrahydrothieno[2,3-c]pyridin-2-yl)-3-(sec-butylamino)propanamide]
27 | < 300 | – | < 300 | CC[C@@H](C)NCCC(=O)Nc1sc2c(c1-c1nc3ccccc3s1)CCN(C(C)C)C2 [Compound 140, (R)—N-(3-(benzo[d]thiazol-2-yl)-6-isopropyl-4,5,6,7-tetrahydrothieno[2,3-c]pyridin-2-yl)-3-(sec-butylamino)propanamide]
28 | < 300 | – | < 300 | CCC(C)NCCC(=O)Nc1sc2c(c1-c1nc3cc(C(F)(F)F)ccc3s1)CCN(C(C)C)C2 (stereo not drawn) [Compound 142, 3-(sec-butylamino)-N-(6-isopropyl-3-(5-(trifluromethyl)benzo[d]thiazol-2-yl)-4,5,6,7-tetrahydrothieno[2,3-c]pyridin-2-yl)propanamide]
29 | < 300 | – | < 300 | CC[C@H](C)NCCC(=O)Nc1sc2c(c1-c1nc3cc(C(F)(F)F)ccc3s1)CCNC2 [Compound 152, (S)-3-(sec-butylamino)-N-(3-(5-(trifluoromethyl)benzo[d]thiazol-2-yl)-4,5,6,7-tetrahydrothieno[2,3-c]pyridin-2-yl)propanamide]
30 | 300 to 1000 | – | < 300 | CC[C@@H](C)NCCC(=O)Nc1sc2c(c1-c1nc3ccccc3s1)CCNC2 [Compound 153, (R)—N-(3-(benzo[d]thiazol-2-yl)-4,5,6,7-tetrahydrothieno[2,3-c]pyridin-2-yl)-3-(sec-butylamino)propanamide]
